Measured values from publication PMC7271024, “N1-Benzofused Modification of Fluoroquinolones Reduces Activity Against Gram-Negative Bacteria” (ACS Omega, 2020).
Values after ≈ are worked out from the molar mass of the structure shown.

Assays:
[1] = Solubility as observed in the MIC and enzyme experiments; format: physicochemical; conditions: evidenced when undertaking the MIC experiments
Experimental: In vitro activity assays using purified S. aureus, E. coli and P. aeruginosa DNA gyrase, and S. aureus topoisomerase IV enzymes were performed in order to evaluate whether the gains in inhibitory activity predicted for the benzofused compounds were accurate. The benzothiophene-containing 6e was selected as a representative compound for the purposes of this experiment. […].
A general correlation between N1 substituent hydrophobicity and activity is observed; […].

[2] = test system: K. pneumoniae M6; assay: MIC, microdilution broth method; format: cell-based, Klebsiella pneumoniae; conditions: Klebsiella pneumoniae, ciprofloxacin-sensitive strain (S)
[3] = test system: P. aeruginosa NCTC 13437; assay: MIC, microdilution broth method; format: cell-based, Pseudomonas aeruginosa; conditions: for potentiation of MIC by PMBN: MIC –PMBN vs +PMBN; for MIC: Pseudomonas aeruginosa, ciprofloxacin-resistant strain (R)
Experimental: (§1) The antibacterial activities of the synthesized fluoroquinolones were evaluated against a panel of Gram-negative pathogens including K. pneumoniae (NCTC 13368, M6), Acinetobacter baumannii (AYE, ATCC 17978), Pseudomonas aeruginosa (PAO1, NCTC 13437), and Escherichia coli (NCTC 12923, LEC001). The ability of molecules to permeate the Gram-negative outer membrane was investigated by adding membrane permeabilizer polymyxin B nonapeptide (PMBN) at sub-inhibitory concentrations (Table 2). Phenylalanine–arginine β-naphthylamide (PAβN) was used to investigate efflux of compounds by resistance–nodulation–division (RND)-family efflux pumps (Table 3).
(§2) Minimal inhibitory concentrations (MICs) were determined using the microdilution broth method. Briefly, compounds were added to the first two columns of a 96-well plate and diluted two-fold down the plate in tryptic soy broth. Overnight cultures of bacteria were then adjusted to a concentration of 1 × 10^6 CFU/mL and added to each well for a final concentration of 5 × 10^5 CFU/mL.

[4] = test system: A. baumannii ATCC 17978; assay: MIC, microdilution broth method; format: cell-based, Acinetobacter baumannii; conditions: Acinetobacter baumannii, ciprofloxacin-sensitive strain (S)
[5] = test system: E. coli NCTC 12923; assay: MIC, microdilution broth method; format: cell-based, Escherichia coli; conditions: Escherichia coli, ciprofloxacin-sensitive strain (S)
[6] = test system: A. baumannii AYE; assay: MIC, microdilution broth method; format: cell-based, Acinetobacter baumannii; conditions: Acinetobacter baumannii, ciprofloxacin-resistant strain (R)
Experimental: as §1, §2

[7] = test system: E. coli LEC001; assay: MIC, microdilution broth method; format: cell-based, Escherichia coli; conditions: Escherichia coli, ciprofloxacin-resistant strain (R)
Experimental: as §1, §2

[8] = test system: P. aeruginosa PAO1; assay: MIC, microdilution broth method; format: cell-based, Pseudomonas aeruginosa; conditions: for potentiation of MIC by PMBN: MIC –PMBN vs +PMBN; for MIC: Pseudomonas aeruginosa, ciprofloxacin-sensitive strain (S)
[9] = test system: K. pneumoniae NCTC 13368; assay: MIC, microdilution broth method; format: cell-based, Klebsiella pneumoniae; conditions: Klebsiella pneumoniae, ciprofloxacin-resistant strain (R)
Experimental: as §1, §2

[10] = test system: panel of Gram-negative pathogens; assay: MIC panel, statements across strains; format: cell-based, K. pneumoniae, A. baumannii, P. aeruginosa, E. coli; conditions: versus ciprofloxacin
Experimental: as §1, §2

| solubility profile [1] | MIC ([2]; M6, +PMBN (30 μg/mL)) [µg/mL] | MIC ([2]; M6, –PMBN) [µg/mL] | potentiation of MIC by PMBN [3] | MIC ([3]; NCTC13437, +PMBN (30 μg/mL)) [µg/mL] | MIC ([3]; NCTC13437, –PMBN) [µg/mL] | MIC ([4]; ATCC17978, +PMBN (30 μg/mL)) [µg/mL] | MIC ([4]; ATCC17978, –PMBN) [µg/mL] | MIC ([5]; NCTC12923, +PMBN (30 μg/mL)) [µg/mL] | MIC ([5]; NCTC12923, –PMBN) [µg/mL] | MIC ([6]; +PMBN (30 μg/mL)) [µg/mL] | MIC ([6]; –PMBN) [µg/mL] | MIC ([7]; LEC001, +PMBN (30 μg/mL)) [µg/mL] | MIC ([7]; LEC001, –PMBN) [µg/mL] | potentiation of MIC by PMBN [8] | MIC ([8]; PAO1, +PMBN (30 μg/mL)) [µg/mL] | MIC ([8]; PAO1, –PMBN) [µg/mL] | MIC ([9]; NCTC13368, +PMBN (30 μg/mL)) [µg/mL] | MIC ([9]; NCTC13368, –PMBN) [µg/mL] | SMILES | antibacterial activity [10] |
| --- | --- | --- | --- | --- | --- | --- | --- | --- | --- | --- | --- | --- | --- | --- | --- | --- | --- | --- | --- | --- |
| poor solubility profiles | > 128 | > 128 | over 8 fold | 32 (≈ 75.9 µM) | > 128 | > 128 | > 128 | 32 (≈ 75.9 µM) | > 128 | > 128 | > 128 | > 32 | > 32 | over 8 fold | 16 (≈ 38 µM) | > 128 | > 128 | > 128 | O=C(O)c1cn(Cc2cccc3ccoc23)c2cc(N3CCNCC3)c(F)cc2c1=O [Compound 6f] | almost complete loss of activity |
| poor solubility profiles | > 128 | > 128 | over 8 fold | 16 (≈ 36.6 µM) | > 128 | > 128 | > 128 | 128 (≈ 293 µM) | > 128 | > 128 | > 128 | > 32 | > 32 | over 8 fold | 32 (≈ 73.1 µM) | > 128 | > 128 | > 128 | O=C(O)c1cn(Cc2cccc3ccsc23)c2cc(N3CCNCC3)c(F)cc2c1=O [Compound 6g] | almost complete loss of activity |
